The supplement of paper PMC13380429
± gives the standard deviation of the averaged measurements.

Assays:
Settings in all cases: 72 h
Vero E6 [1] = assay: cell viability relative to DMSO; higher = less toxic
U2OS [2] = assay: as above
Calu-3 [3] = assay: as above
HepG2 [4] = assay: as above
Caco-2 [5] = assay: as above
Vero E6 [6] = assay: relative viability EC50 (midpoint between 100% and the lowest measured viability); higher = less toxic
U2OS [7] = assay: as above
Calu-3 [8] = assay: as above
HepG2 [9] = assay: as above
Caco-2 [10] = assay: as above
Vero E6 [11] = assay: drug sensitivity score (DSS) for viability; higher = more toxic; extreme values may be limits of the assay
U2OS [12] = assay: as above
Calu-3 [13] = assay: as above
HepG2 [14] = assay: as above
Caco-2 [15] = assay: as above

Compound | cell viability (Vero E6 [1]; 1 nM) [%] | cell viability (Vero E6 [1]; 10 nM) [%] | cell viability (Vero E6 [1]; 100 nM) [%] | cell viability (Vero E6 [1]; 1000 nM) [%] | cell viability (Vero E6 [1]; 10000 nM) [%] | cell viability (U2OS [2]; 1 nM) [%] | cell viability (U2OS [2]; 10 nM) [%] | cell viability (U2OS [2]; 100 nM) [%] | cell viability (U2OS [2]; 1000 nM) [%] | cell viability (U2OS [2]; 10000 nM) [%] | cell viability (Calu-3 [3]; 1 nM) [%] | cell viability (Calu-3 [3]; 10 nM) [%] | cell viability (Calu-3 [3]; 100 nM) [%] | cell viability (Calu-3 [3]; 1000 nM) [%] | cell viability (Calu-3 [3]; 10000 nM) [%] | cell viability (HepG2 [4]; 1 nM) [%] | cell viability (HepG2 [4]; 10 nM) [%] | cell viability (HepG2 [4]; 100 nM) [%] | cell viability (HepG2 [4]; 1000 nM) [%] | cell viability (HepG2 [4]; 10000 nM) [%] | cell viability (Caco-2 [5]; 1 nM) [%] | cell viability (Caco-2 [5]; 10 nM) [%] | cell viability (Caco-2 [5]; 100 nM) [%] | cell viability (Caco-2 [5]; 1000 nM) [%] | cell viability (Caco-2 [5]; 10000 nM) [%] | relative viability EC50 (Vero E6 [6]) [µM] | relative viability EC50 (U2OS [7]) [µM] | relative viability EC50 (Calu-3 [8]) [µM] | relative viability EC50 (HepG2 [9]) [µM] | relative viability EC50 (Caco-2 [10]) [µM] | drug sensitivity score (Vero E6 [11]) | drug sensitivity score (U2OS [12]) | drug sensitivity score (Calu-3 [13]) | drug sensitivity score (HepG2 [14]) | drug sensitivity score (Caco-2 [15])
O=C(O)C(=O)Nc1cccc(-c2nnn[nH]2)c1 [acitazanolast] | 98.7 | 99.5 | 99.4 | 100 | 97.4 | 99.8 | 98.4 | 99.3 | 101 | 96 | 100 | 107 | 91.3 | 105 | 99 | 94.8 | 99 | 101 | 96.3 | 110 | 100 | 86.7 | 88.4 | 95.9 | 97.1 | > 10 | > 10 | > 10 | > 10 | > 10 | 0 | 0 | 0 | 0 | 0
O=C(NCCN1CCN(c2ncccn2)CC1)C12CC3CC(CC(C3)C1)C2 [adatanserin] | 99.5 | 97.9 | 101 | 99.4 | 104 | 94.9 | 94.2 | 97.8 | 96.9 | 97.4 | 101 | 96.5 | 107 | 86.8 | 101 | 102 | 98 | 88.5 | 90.7 | 90.9 | 92 | 114 | 94.7 | 102 | 88.5 | > 10 | > 10 | > 10 | > 10 | > 10 | 0 | 0 | 0 | 0.9 | 0
Nc1ncnc2c1ncn2[C@@H]1O[C@H](CO)[C@@H](O)[C@H]1O [adenosine] | 102.5 ± 0.99 | 102 ± 2.3 | 97.3 ± 3.5 | 103.5 ± 0.35 | 99.95 ± 0.35 | 102 ± 1.8 | 98 ± 3 | 98.2 ± 3.2 | 98.5 ± 2.2 | 104 ± 5.9 | 107 | 88.4 | 96.3 | 96.1 | 95.2 | 98.05 ± 0.21 | 102 ± 6.9 | 96.7 ± 6.6 | 110 ± 9.2 | 88 ± 9.1 | 103 ± 2.4 | 100 ± 4.7 | 97.9 ± 1.8 | 94.5 ± 1.1 | 95.2 ± 8.6 | > 10 | > 10 | > 10 | > 10 | > 10 | 0 | 0 | 0 | 0.1 ± 0.14 | 0
O=C(NCc1ccc2c(c1)OCO2)c1c(Cl)cccc1Cl [alda-1] | 94.2 | 105 | 98.8 | 91.2 | 98.3 | 103 | 99.8 | 99 | 100 | 100 | 91.7 | 100 | 109 | 102 | 108 | 92 | 105 | 99.8 | 101 | 95.9 | 93 | 91.3 | 100 | 93.1 | 99.1 | > 10 | > 10 | > 10 | > 10 | > 10 | 0 | 0 | 0 | 0 | 0
C=C1/C(=C\C=C2/CCC[C@]3(C)[C@@H]([C@H](C)CCCC(C)C)CC[C@@H]23)C[C@@H](O)C[C@@H]1O [alfacalcidol] | 90.2 | 98.3 | 92.2 | 97.1 | 101 | 94.1 | 93.7 | 99 | 89.1 | 91.5 | 90.9 | 94.3 | 99.6 | 87.5 | 101 | 91.4 | 105 | 98.4 | 108 | 102 | 98.2 | 98.1 | 92.5 | 85 | 85.9 | > 10 | > 10 | > 10 | > 10 | > 10 | 0 | 0 | 0 | 0 | 1.5
C=CCc1cc(OC)c(O)c(C(=O)NCCO)c1 [alibendol] | 105 | 99.2 | 99.6 | 105 | 97.4 | 102 | 105 | 95 | 104 | 99.6 | 93.6 | 99.3 | 87.2 | 99.7 | 101 | 92.4 | 98.7 | 101 | 92.5 | 102 | 90.7 | 112 | 90.5 | 93 | 99.9 | > 10 | > 10 | > 10 | > 10 | > 10 | 0 | 0 | 0 | 0 | 0
CC(C)c1ccc2oc3nc(N)c(C(=O)O)cc3c(=O)c2c1 [amlexanox] | 96.6 | 99.8 | 98.4 | 102 | 106 | 97.1 | 94.3 | 100 | 96.4 | 99.8 | 92.3 | 87.4 | 104 | 101 | 99.5 | 96.7 | 101 | 99.9 | 109 | 113 | 94 | 95.9 | 99.8 | 89.8 | 108 | > 10 | > 10 | > 10 | > 10 | > 10 | 0 | 0 | 0 | 0 | 0
